In one assay the test system is PDX Model BL0293. Kind of assay: Drug-DNA adduct frequency in PDX tumor tissue by AMS. The assay is classed as in vivo, NSG mice. The conditions noted are these: microdose 0.092 mg/kg gemcitabine, 24 h. From the text: (§1) Female NSG mice (5-8 weeks of age, body weight: 20 to 25 g) were obtained from Jackson Laboratories (CA, USA). All animals were kept under pathogen-free conditions and were allowed to acclimatize for at least 4 days prior to any experiments. PDX models bearing the indicated patient derived xenografts were created by subcutaneous injection at the flank of 1 mm^3 tumor tissue. To establish multiple PDXs to allow efficacy studies with multiple drugs, PDXs from passage 2-4 were minced into 1 mm^3 sections and injected subcutaneously into multiple mice. At least 3 mice were used for each treatment group. Tumors were allowed to grow to at about 100 mm^3 before being assessed for drug sensitivity or the induction of DNA adducts by the administration of a microdose or a therapeutic dose of labeled drug. […] Tumor growth was assessed by measuring palpable tumors with a caliper and calculating tumor volume. Drug-DNA adduct frequencies were measured in tumor tissue collected 24 hours after intravenous injection of labeled drug and stored at −80° C. until DNA isolation. DNA was isolated using a modified Wizard procedure (Promega), quantitated by spectrophotometry, and then stored frozen at −20° C. until AMS analysis. Ten micrograms of DNA per sample was converted to graphite and measured by AMS for 14C quantification as previously described. […]

Another assay deals with PDX Model BL0440. The assay is described as above. The assay is classed as in vivo, NSG mice. To be noted: microdose 0.092 mg/kg gemcitabine, 24 h.
Source text: as §1

The subject of the next assay is PDX Model BL0269. Described as above. The assay is classed as in vivo, NSG mice. From the text:
(§2) Female NSG mice (5-8 weeks of age, body weight: 20 to 25 g) were obtained from Jackson Laboratories (CA, USA). All animals were kept under pathogen-free conditions and were allowed to acclimatize for at least 4 days prior to any experiments. PDX models bearing the indicated patient derived xenografts were created by subcutaneous injection at the flank of 1 mm^3 tumor tissue. To establish multiple PDXs to allow efficacy studies with multiple drugs, PDXs from passage 2-4 were minced into 1 mm^3 sections and injected subcutaneously into multiple mice. At least 3 mice were used for each treatment group. Tumors were allowed to grow to at about 100 mm^3 before being assessed for drug sensitivity or the induction of DNA adducts by the administration of a microdose or a therapeutic dose of labeled drug. To assess tumor response to chemotherapy, cisplatin was administered at 2 mg/kg IV every 7 days for a total of 3 cycles, or gemcitabine was administered at 150 mg/kg IP every 7 days for a total of 4 cycles. G/C combination chemotherapy consisted of the simultaneous administration of both drugs using the schema described above. Tumor growth was assessed by measuring palpable tumors with a caliper and calculating tumor volume. Drug-DNA adduct frequencies were measured in tumor tissue collected 24 hours after intravenous injection of labeled drug and stored at −80° C. until DNA isolation. DNA was isolated using a modified Wizard procedure (Promega), quantitated by spectrophotometry, and then stored frozen at −20° C. until AMS analysis. Ten micrograms of DNA per sample was converted to graphite and measured by AMS for 14C quantification as previously described.
(§3) NSG mice bearing the indicated PDX tumors were injected with a microdose of ^14C-labeled carboplatin (FIG. 22A) or ^14C-labeled gemcitabine (FIG. 22B). The microdose of ^14C-labeled carboplatin was 0.375 mg/kg carboplatin, 50,000 dpm/g. The microdose of ^14C-labeled gemcitabine was 0.092 mg/kg gemcitabine, 1000 dpm/g. The doses of each drug administered to the mice were chosen to target 1 μM in plasma concentration of carboplatin and 0.3 μM in plasma concentration of gemcitabine. These plasma concentrations represent 1% of the approximate peak plasma concentration during human chemotherapy. Animals were sacrificed after 24 h and drug-DNA adduct frequency was determined from collected tumor tissue by AMS measurements of ^14C in tumor DNA. Carboplatin DNA-adduct levels correlate with PDX model sensitivity to cisplatin at 24h after microdosing (FIG. 22A). […]
(§4) In this example we test whether gemcitabine/carboplatin (G/Carbo) combination therapy has an effect on the formation of drug-DNA adducts in this synergistic tumor model. […] Carboplatin-DNA monoadducts were measured in tumor tissue 24 h after dosing. […]

In a further assay the test system is PDX Model BL0645. Described as above. The assay is classed as in vivo, NSG mice. To be noted: 24 h.
Source text: as §2, §3, §4

The next assay concerns A549. As to the kind of experiment: MTT assay (IC50). The assay is classed as cell-based, human. How it is done: Six non-small cell lung cancer (NSCLC) cell lines were treated in culture with [^14C]carboplatin. Carboplatin-DNA monoadduct levels over time were determined by measuring ^14C content in genomic DNA with accelerator mass spectrometry (AMS). Cellular sensitivity to carboplatin and cisplatin was analyzed by the MTT assay (Henderson et al., International Journal of Cancer 2011).
Human NSCLC cell lines H23, H460, H727, HCC827, H1975, and A549 were purchased from ATCC and were cultured with the recommended medium. The MTT assay was performed as previously reported to determine the drug concentration required to inhibit cell growth by 50% (IC50) of cisplatin and carboplatin. [^14C]Carboplatin (at 53 mCi/mmol) was mixed with unlabeled carboplatin to achieve the specific activities required for microdoses and therapeutic doses. Table 1 lists the six NSCLC cell lines and summarizes their IC50 characteristics, induced carboplatin-DNA monoadducts when treated with [^14C]carboplatin, and p and r^2 values for correlation analysis to the IC50 concentrations.
(In general: Tetrazolium dyes change colour on reduction, which living cells bring about.)

The test system of another assay is 5637. As to the kind of experiment: MTT assay (IC50). The assay is classed as cell-based, human. How it is done:
Thus, we measured the IC50 of the six NSCLC cell lines from Example 2 to both cisplatin and carboplatin to determine if the sensitivity of these six NSCLC cell lines to the two drugs are correlated.
The cell lines were purchased from the American Type Culture Collection (ATCC, Manassas, Va.) and cultured in the recommended media.
Drug-DNA adduct formation and repair was measured by accelerator mass spectrometry.
These two cell lines were also cultured with a range of concentrations of cisplatin, carboplatin, gemcitabine, doxorubicin, methotrexate and vinblastine for 72 hours to determine IC50 for these other drugs (FIG. 16C). These drugs were chosen because of their frequent use in the treatment of bladder cancer.

What is called IC50 is the concentration at which inhibition is half-maximal.

On to `Nc1ccn([C@@H]2O[C@H](CO)[C@@H](O)C2(F)F)[14c](=O)n1` [[^14C]gemcitabine, 2′-Deoxy-2′,2′-difluorocytidine, [cytosine-2-^14C]-], for which the gemcitabine adduct levels in the assay with PDX Model BL0293 is given as 10.0±5.92; in the assay on PDX Model BL0440, 13.1±10.2; in the assay on PDX Model BL0269 (BL0269 tumor DNA, microdose 0.092 mg/kg gemcitabine, 24 h (FIG. 22B)) it was 3.17±0.278; in the assay with PDX Model BL0645 (BL0645 tumor DNA, microdose 0.092 mg/kg gemcitabine, alone or with carboplatin 0.375 mg/kg) it was 2.44±0.880 adducts per 10^8 nucleotides. In the assay on PDX Model BL0269 (BL0269 control experiment (FIG. 23F), microdose gemcitabine 0.092 mg/kg, alone or with carboplatin 0.375 mg/kg), the gemcitabine-DNA adduct levels is recorded as 2.44±0.492 adducts per 10^8 nucleotides. In addition, the gemcitabine adduct level in the assay on PDX Model BL0645 (BL0645, therapeutic dose gemcitabine 9.2 mg/kg, alone or with carboplatin 37.5 mg/kg) is listed as 169.2±9.129 adducts per 10^8 nucleotides.
Regarding `N.N.[Cl][Pt][Cl]` [cisplatin], the half-inhibitory concentration (IC50) was 26300 ± 9260 nM in the assay with A549; 2430 ± 450 nM in the assay on 5637 (5637 (Table 2)); 590 nM in the assay with 5637 (5637 (parental, Example 11), MTT, 72 hours).

The record behind these values is patent US11474106B2, “Methods for cytotoxic chemotherapy-based predictive assays” (ACCELERATED MEDICAL DIAGNOSTICS, INC., priority 2015, dated 2022).
